We go through four molecules from ChEMBL document CHEMBL1148904, “Iridoid glycosides from Eremostachys glabra” (J Nat Prod, 2004).

Molecules are shown by their SMILES.

For the assay, the system named is Radical scavenging activity. In words: Antioxidant activity assessed as DPPH radical scavenging activity after 30 mins. It is filed as functional. (The DPPH test is a chemical assay of radical scavenging.)
Regarding `O=c1c(O)c(-c2ccc(O)c(O)c2)oc2cc(O)cc(O)c12`, the RC50 was found to be 2.88 ×10⁻⁵ mg/ml.

`COC(=O)C1=CO[C@@H](O[C@@H]2O[C@H](CO)[C@@H](O)[C@H](O)[C@H]2O)[C@H]2[C@H](C)C[C@@H](O)[C@@]12O`: the RC50 stood at 4.9 ×10⁻¹ mg/ml.

`COC(=O)C1=CO[C@@H](O[C@@H]2O[C@H](CO)[C@@H](O)[C@H](O)[C@H]2O)[C@H]2C(C)=C[C@@H](O)[C@@]12O`: the RC50 was 4.1 ×10⁻¹ mg/ml.

For `COC(=O)C1=CO[C@@H](O[C@@H]2O[C@H](CO)[C@@H](O)[C@H](O)[C@H]2O)[C@@H]2[C@@H]1[C@@H](O)C[C@]2(C)OC(C)=O`, the RC50 worked out at 1.1 ×10⁻¹ mg/ml.
